Test results as given in patent US20130150363A1, “Method of Treating Cancer Using a cMET and AXL Inhibitor and an ErbB Inhibitor” (GlaxoSmithKline, priority 2008, published 2013).

Key:
Type in all cases: cell-based
[1] = test system: NCI-H441 lung carcinoma cells; test: Cell growth inhibition (CellTiter-Glo), NCI-H441; conditions: Homo sapiens, NCI-H441, 72 h, 3 days
[2] = test system: KPL-4 breast cancer cells; test: Cell growth inhibition (CellTiter-Glo), KPL-4; conditions: Homo sapiens, KPL4, 72 h, 3 days
Text: (§1) Esophageal carcinoma cell line OE33 was purchased from ECACC European Collection of Cell Cultures (UK). Breast cancer cell line JIMT-1 and gastric carcinoma cell line MKN-45 were purchased from Deutsche Sammlung von Mikroorganismen and Zellkulturen GmbH (Germany); KPL-4, a human breast cancer cell line was kindly provided by Prof. J Kurebayashi (Kawasaki Medical School, Kurashiki, Japan). […] The LICR-LON-HN5 head and neck carcinoma cell line (HN5) was a gift from the Institute of Cancer Research, Surrey, U.K. HN5C12 was developed by single-cell cloning of HN5 followed by exposure to increasing concentrations of lapatinib. […] Cell growth inhibition was determined via CellTiter-Glo cell viability assays. […] BT474-J4 and HN5C12 were washed with PBS and plated in their culture media without lapatinib. […] ATP levels were determined by adding Cell Titer Glo0 (Promega), incubating for 20 minutes then the luminescent signal was read on the SpectraMax M5 plate with a 0.5 second integration time. Cell growth was calculated relative to vehicle (DMSO) treated control wells. […] y=([…]) where A is the minimum response (ymin), B is the maximum response (ymax), c is the inflection point of the curve (EC50), d is the Hill coefficient, and x is the log10 compound concentration (moles/L). CI values were calculated with the interpolated IC50 values and the mutually non-exclusive equation derived by Chou and […](a)+Db/IC50(b)+(Da×Db)/(IC50(a)×IC50(b)) where IC50(a) is the IC50 of the inhibitor A; IC50(b) is the IC50 for the inhibitor B; […] Excess Over Highest Single Agent (EOHSA) is defined as a statistically significant improvement in the combination compared to the component monotherapies. […] See Borisy et al. (2003) or Hung et al. (1993) for examples and discussion. Analysis was conducted using two-factor analysis of variance with interaction (model terms were dose of drug A, dose of drug B, and interaction between doses of drug A and B), followed by linear contrasts between each combination group and corresponding monotherapies. Analysis was conducted using SAS (version 9, provided by SAS Institute, Cary, N.C.). EOHSA at each dose was calculated as the minimum difference in average % inhibition between the combination and each monotherapy, from the appropriate ANOVA contrast. Since there are many comparisons for the % inhibition endpoint, p-value adjustment for multiple comparisons was performed. Hommel's procedure was implemented in order to improve the power while retaining […] Error Rate (FWE) control by using a sequentially rejective method. The p-values for both synergy and antagonism were calculated using this adjustment.

[3] = test system: HN5 head and neck carcinoma cells; test: Cell growth inhibition (CellTiter-Glo), HN5; conditions: Homo sapiens, 72 h, 3 days
Text: as §1

[4] = test system: NCI-H2342 lung carcinoma cells; test: Cell growth inhibition (CellTiter-Glo), NCI-H2342; conditions: Homo sapiens, NCI-H2342, 72 h, 3 days
Text: as §1

[5] = test system: HOP-92 lung carcinoma cells; test: Cell growth inhibition (CellTiter-Glo), HOP-92; conditions: Homo sapiens, HOP-92, 72 h, 3 days
Text: as §1

ovary_SKOV3 tumor cells = test: Cell growth inhibition (CellTiter-Glo), SKOV3; conditions: Homo sapiens, SK-OV-3, 72 h, 3 days
Experimental: Cell growth inhibition was determined via CellTiter-Glo cell viability assays. […] BT474-J4 and HN5C12 were washed with PBS and plated in their culture media without lapatinib. […] ATP levels were determined by adding Cell Titer Glo0 (Promega), incubating for 20 minutes then the luminescent signal was read on the SpectraMax M5 plate with a 0.5 second integration time. Cell growth was calculated relative to vehicle (DMSO) treated control wells. […] y=([…]) where A is the minimum response (ymin), B is the maximum response (ymax), c is the inflection point of the curve (EC50), d is the Hill coefficient, and x is the log10 compound concentration (moles/L). CI values were calculated with the interpolated IC50 values and the mutually non-exclusive equation derived by Chou and […](a)+Db/IC50(b)+(Da×Db)/(IC50(a)×IC50(b)) where IC50(a) is the IC50 of the inhibitor A; IC50(b) is the IC50 for the inhibitor B; […] Excess Over Highest Single Agent (EOHSA) is defined as a statistically significant improvement in the combination compared to the component monotherapies. […] In statistical terms, the maximum of the p-value's for the two comparisons Aq+Br vs Aq and Aq+Br vs Br should be less than or equal to an appropriate cutoff, p≦0.05. EOHSA is a common approach for evaluating drug combinations, and is an FDA criterion (21 CRF 300.50) for combination drug approval. See Borisy et al. (2003) or Hung et al. (1993) for examples and discussion. Analysis was conducted using two-factor analysis of variance with interaction (model terms were dose of drug A, dose of drug B, and interaction between doses of drug A and B), followed by linear contrasts between each combination group and corresponding monotherapies. Analysis was conducted using SAS (version 9, provided by SAS Institute, Cary, N.C.). EOHSA at each dose was calculated as the minimum difference in average % inhibition between the combination and each monotherapy, from the appropriate ANOVA contrast. Since there are many comparisons for the % inhibition endpoint, p-value adjustment for multiple comparisons was performed. Hommel's procedure was implemented in order to improve the power while retaining […] Error Rate (FWE) control by using a sequentially rejective method. The p-values for both synergy and antagonism were calculated using this adjustment.

Structure (SMILES)	IC50 ([1]; lung_H441, +HGF (2 ng/mL))	IC50 ([1]; lung_H441, −HGF)	IC50 ([2]; breast_KPL4, +HGF (2 ng/mL))	IC50 ([2]; breast_KPL4, −HGF)	IC50 ([3]; hn_HN5, +HGF (2 ng/mL))	IC50 ([3]; hn_HN5, −HGF)	IC50 ([4]; lung_H2342, +HGF (2 ng/mL))	IC50 ([4]; lung_H2342, −HGF)	IC50 ([5]; lung_HOP-92, +HGF (2 ng/mL))	IC50 ([5]; lung_HOP-92, −HGF)	IC50 (ovary_SKOV3 tumor cells; ovary_SKOV3, +HGF (2 ng/mL))	IC50 (ovary_SKOV3 tumor cells; ovary_SKOV3, −HGF)
C#Cc1cccc(Nc2ncnc3cc(OCCOC)c(OCCOC)cc23)c1 [Erlotinib, N-(3-ethynylphenyl)-6,7-bis{[2-(methyloxy)ethyl]oxy}-4-quinazolinamine]	> 10 µM	> 10 µM	> 10 µM	> 10 µM	> 10 µM	6.72 µM	> 10 µM	> 10 µM	> 10 µM	> 10 µM	5.39 µM	5.62 µM
CS(=O)(=O)CCNCc1ccc(-c2ccc3ncnc(Nc4ccc(OCc5cccc(F)c5)c(Cl)c4)c3c2)o1 [Lapatinib, N-(3-chloro-4-{[(3-fluorophenyl)methyl]oxy}phenyl)-6-[5-({[2-(methylsulfonyl)ethyl]amino}methyl)-2-furanyl]-4-quinazolinamine]	> 10 µM	> 10 µM	0.89 µM	1 µM	3.69 µM	2.37 µM	6.64 µM	6.81 µM	> 10 µM	> 10 µM	5.67 µM	5.02 µM
